Measured values: EP4273147A1, “SUBSTITUTED SPIROLACTAMS, SALTS THEREOF AND THEIR USE AS HERBICIDALLY ACTIVE SUBSTANCES” (Bayer Aktiengesellschaft, priority 2022, dated 2023)

Columns and labels:
ZEAMX [1] = assay: Post-emergence effects on crop plants (Table F1); format: in vivo, Zea mays; conditions: application rate 320 g/ha, crop plant ZEAMX
Description: (§1) 2 to 3 weeks after sowing, the test plants were sprayed in the single-leaf stage.

TRZAS [2] = assay: Post-emergence effects on crop plants (Table F2); format: in vivo, Triticum aestivum; conditions: application rate 320 g/ha, crop plant TRZAS
Description: as §1

DIGSA [3] = assay: Herbicidal pre-emergence action (Table A12); format: in vivo, Digitaria sanguinalis; conditions: application rate 320 g/ha; visual grading after ca. 3 weeks
Description: (§2) Seeds of mono- and dicotyledonous weed plants were sown in plastic pots (double sowings with one species of mono- and one species of dicotyledonous weed plants per pot), in sandy loam, and covered with soil.

ECHCG [4] = assay: Herbicidal pre-emergence action, section C (Table C6); format: in vivo, Echinochloa crus-galli; conditions: visual grading after ca. 3 weeks
ECHCG [5] = assay: Herbicidal post-emergence action (Table B3); format: in vivo, Echinochloa crus-galli; conditions: application rate 1280 g/ha; rated visually after about 3 weeks
Method: (§3) Seeds of mono- and dicotyledonous weed plants were placed in plastic pots in sandy loam soil (doubly sown with in each case one species of mono- or dicotyledonous weed plants per pot), covered with soil and cultivated in a greenhouse under controlled growth conditions. 2 to 3 weeks after sowing, the test plants were treated at the one-leaf stage. […] After the test plants had been kept in the greenhouse under optimum growth conditions for about 3 weeks, the activity of the preparations was rated visually in comparison to untreated controls. For example, 100% activity = the plants have died, 0% activity = like control plants.

VERPE [6] = assay: Herbicidal pre-emergence action (Table A11); format: in vivo, Veronica persica; conditions: application rate 1280 g/ha; visual grading after ca. 3 weeks
Description: as §2

ALOMY [7] = assay: Herbicidal pre-emergence action (Table A9); format: in vivo, Alopecurus myosuroides; conditions: application rate 1280 g/ha; visual grading after ca. 3 weeks
Description: as §2

VERPE [8] = assay: Herbicidal pre-emergence action, section C (Table C11); format: in vivo, Veronica persica; conditions: application rate 320 g/ha; visual grading after ca. 3 weeks
MATIN = assay: Herbicidal pre-emergence action (Table A4); format: in vivo, Matricaria inodora; conditions: application rate 1280 g/ha; visual grading after ca. 3 weeks
Description: as §2

ORYZA [9] = assay: Pre-emergence effects on crop plants (Table D3); conditions: crop plant; application rate 320 g/ha; visual grading after ca. 3 weeks
Description: Seeds of mono- and dicotyledonous weed plants and crop plants were sown, in plastic or organic planting pots, in sandy loam and covered with soil. The compounds according to the invention, formulated in the form of wettable powders (WP) or as emulsifiable concentrates (EC), were applied to the surface of the covering soil as aqueous suspension or emulsion, with the addition of 0.5% of an additive, at an application rate of 600 1 of water/ha (converted).
Following treatment, the pots were placed in a greenhouse and kept under optimum growth conditions for the test plants.

DIGSA [10] = assay: Herbicidal pre-emergence action, section C (Table C5); format: in vivo, Digitaria sanguinalis; conditions: application rate 320 g/ha; visual grading after ca. 3 weeks
POAAN [11] = assay: Herbicidal pre-emergence action (Table A7); format: in vivo, Poa annua; conditions: visual grading after ca. 3 weeks
Description: as §2

ECHCG [12] = assay: Herbicidal pre-emergence action (Table A2); format: in vivo, Echinochloa crus-galli; conditions: application rate 320 g/ha; visual grading after ca. 3 weeks
Description: as §2

STEME = assay: Herbicidal pre-emergence action (Table A6); format: in vivo, Stellaria media; conditions: visual grading after ca. 3 weeks
Description: as §2

ORYZA [13] = assay: Post-emergence effects on crop plants (Table F3); format: in vivo, Oryza sativa; conditions: application rate 320 g/ha, crop plant ORYZA
Description: as §1

VIOTR = assay: Herbicidal pre-emergence action, section C (Table C12); format: in vivo, Viola tricolor; conditions: application rate 80 g/ha; visual grading after ca. 3 weeks
SETVI [14] = assay: Herbicidal pre-emergence action (Table A5); format: in vivo, Setaria viridis; conditions: visual grading after ca. 3 weeks
Description: as §2

LOLRI [15] = assay: Herbicidal pre-emergence action, section C (Table C7); format: in vivo, Lolium rigidum; conditions: application rate 320 g/ha; visual grading after ca. 3 weeks
Description: Seeds of mono- and dicotyledonous weed plants and crop plants were sown, in plastic or organic planting pots, in sandy loam and covered with soil. The compounds according to the invention, formulated in the form of wettable powders (WP) or as emulsifiable concentrates (EC), were applied to the surface of the covering soil as aqueous suspension or emulsion, with the addition of 0.5% of an additive, at an application rate of 600 1 of water/ha (converted). Following treatment, the pots were placed in a greenhouse and kept under optimum growth conditions for the test plants.

TRZAS [16] = assay: Pre-emergence effects on crop plants (Table D2); format: in vivo, Triticum aestivum; conditions: crop plant, visual grading after ca. 3 weeks
GLXMA = assay: Pre-emergence effects on crop plants (Table D4); format: in vivo, Glycine max; conditions: crop plant, visual grading after ca. 3 weeks
SETVI [17] = assay: Herbicidal pre-emergence action, section C (Table C10); format: in vivo, Setaria viridis; conditions: visual grading after ca. 3 weeks
LOLRI [18] = assay: Herbicidal pre-emergence action (Table A3); format: in vivo, Lolium rigidum; conditions: visual grading after ca. 3 weeks
Description: as §2

POAAN [19] = assay: Herbicidal post-emergence action (Table B7); format: in vivo, Poa annua; conditions: application rate 1280 g/ha
Method: as §3

BRSNW [20] = assay: Post-emergence effects on crop plants (Table F5); format: in vivo, Brassica napus; conditions: crop plant BRSNW
Description: as §1

ZEAMX [21] = assay: Pre-emergence effects on crop plants (Table D1); format: in vivo, Zea mays; conditions: crop plant, visual grading after ca. 3 weeks
ALOMY [22] = assay: Herbicidal pre-emergence action, section C (Table C2); format: in vivo, Alopecurus myosuroides; conditions: application rate 320 g/ha; visual grading after ca. 3 weeks
BRSNW [23] = assay: Pre-emergence effects on crop plants (Table D5); format: in vivo, Brassica napus; conditions: crop plant; application rate 320 g/ha; visual grading after ca. 3 weeks
ECHCG [24] = assay: Herbicidal post-emergence action, section E (Table E5); format: in vivo, Echinochloa crus-galli; conditions: application rate 320 g/ha; assessed visually after ca. 3 weeks
Description: as §1

SETVI [25] = assay: Herbicidal post-emergence action (Table B8); format: in vivo, Setaria viridis; conditions: application rate 1280 g/ha
Method: as §3

Compound | post-emergence activity against ZEAMX (ZEAMX [1]) [%] | post-emergence activity against TRZAS (TRZAS [2]) [%] | post-emergence activity against ECHCG (ECHCG [5]) [%] | pre-emergence activity against VERPE (VERPE [6]) [%] | pre-emergence activity against ALOMY (ALOMY [7]) [%] | pre-emergence activity against MATIN (MATIN) [%] | pre-emergence activity against POAAN (POAAN [11]; application rate 320 g/ha) [%] | pre-emergence activity against ECHCG (ECHCG [12]) [%] | post-emergence activity against ORYZA (ORYZA [13]) [%] | post-emergence activity against POAAN (POAAN [19]) [%] | pre-emergence activity against ALOMY (ALOMY [22]) [%] | pre-emergence activity against SETVI (SETVI [14]; application rate 320 g/ha) [%] | pre-emergence activity against LOLRI (LOLRI [18]; application rate 320 g/ha) [%] | further results
O=C1N(Cc2ccccc2F)CCCC12CCN(Cc1ccccc1Cl)C2=O (racemic) [I-027] | 0 | 0 | 90 | 90 | 90 | 90 | 100 | 100 | 0 | 90 | 100 | – | – | pre-emergence activity against DIGSA (DIGSA [3]): 90%; pre-emergence activity against ECHCG (ECHCG [4]; application rate 80 g/ha): 100%; pre-emergence activity against VERPE (VERPE [8]): 90%; pre-emergence activity against ORYZA (ORYZA [9]): 0%; pre-emergence activity against DIGSA (DIGSA [10]): 100%; pre-emergence activity against STEME (STEME; application rate 1280 g/ha): 90%; pre-emergence activity against VIOTR (VIOTR): 90%; pre-emergence activity against SETVI (SETVI [14]; application rate 1280 g/ha): 100%; pre-emergence activity against LOLRI (LOLRI [15]): 90%; pre-emergence activity against TRZAS (TRZAS [16]; application rate 320 g/ha): 0%; pre-emergence activity against GLXMA (GLXMA; application rate 80 g/ha): 0%; pre-emergence activity against SETVI (SETVI [17]; application rate 320 g/ha): 100%; pre-emergence activity against LOLRI (LOLRI [18]; application rate 1280 g/ha): 100%; post-emergence activity against BRSNW (BRSNW [20]; application rate 80 g/ha): 20%; pre-emergence activity against ZEAMX (ZEAMX [21]; application rate 320 g/ha): 0%
Cc1ccccc1CN1CCCC2(CCCN(Cc3ccccc3F)C2=O)C1=O (racemic) [I-044] | 0 | 10 | 90 | – | 90 | 100 | 90 | 100 | 0 | 90 | 80 | 90 | 100 | pre-emergence activity against BRSNW (BRSNW [23]): 0%; pre-emergence activity against ECHCG (ECHCG [4]; application rate 320 g/ha): 100%; pre-emergence activity against STEME (STEME; application rate 320 g/ha): 90%; pre-emergence activity against TRZAS (TRZAS [16]; application rate 80 g/ha): 0%; pre-emergence activity against GLXMA (GLXMA; application rate 320 g/ha): 0%; pre-emergence activity against SETVI (SETVI [17]; application rate 80 g/ha): 100%; post-emergence activity against ECHCG (ECHCG [24]): 80%; post-emergence activity against BRSNW (BRSNW [20]; application rate 320 g/ha): 0%; pre-emergence activity against ZEAMX (ZEAMX [21]; application rate 80 g/ha): 0%
Cc1ccccc1CN1CCCC2(CCCN(Cc3c(F)cccc3F)C2=O)C1=O (racemic) [I-051] | – | – | 90 | 90 | 90 | – | – | 100 | – | 90 | – | 100 | 100 | pre-emergence activity against POAAN (POAAN [11]; application rate 1280 g/ha): 90%; post-emergence activity against SETVI (SETVI [25]): 90%
